Experimental data as given in ChEMBL document CHEMBL1135056, “Differential inhibition of polymerase and strand-transfer activities of HIV-1 reverse transcriptase” (Bioorg Med Chem Lett, 2002).

Experiments:
[1] = target: T1, Human immunodeficiency virus type 1 reverse transcriptase (Human immunodeficiency virus 1, UniProt Q72547); assay: Inhibition of HIV-1 reverse transcriptase polymerization using wild type HIV-1-RT enzyme
[2] = target: T1, Human immunodeficiency virus type 1 reverse transcriptase; assay: Tested for its ability to inhibit HIV-1 reverse transcriptase strand transfer using wild type HIV-1-RT enzyme
[3] = target: T1, Human immunodeficiency virus type 1 reverse transcriptase; assay: Tested for its ability to inhibit HIV-1 reverse transcriptase strand transfer using A17 double mutant HIV-1-RT enzyme
[4] = target: T1, Human immunodeficiency virus type 1 reverse transcriptase; assay: Tested for its ability to inhibit HIV-1 reverse transcriptase polymerization using A17 double mutant HIV-1-RT enzyme

SMILES | IC50 [1] [µM] | IC50 [2] [µM] | IC50 [3] [µM] | IC50 [4] [µM]
O=C(OC1COc2cc(O)cc(O)c2C1)c1cc(O)c(O)c(O)c1 (centres undefined) | 3.8 | 6.2 | 5.5 | 
O=C(OCCc1ccc(O)cc1)c1cc(O)c(O)c(O)c1 | 7.9 | 4.5 |  | 
O=C(OC1COc2cc(O)cc(O)c2C1)c1cc(O)cc(O)c1 (centres undefined) | 96.3 |  |  | 
O=C(OC1COc2cccc(O)c2C1)c1cc(O)c(O)c(O)c1 (centres undefined) | 45.5 | 8.7 |  | 64.7
O=C(OC1COc2cc(O)ccc2C1)c1cc(O)c(O)c(O)c1 (centres undefined) | 36.3 | 7.6 |  | 30.8
COc1cc(OC)c2c(c1)OCC(OC(=O)c1cc(O)c(O)c(O)c1)C2 (centres undefined) | 72.8 | 0.9 | 6.9 | > 100
O=C(OC1COc2cc(O)cc(O)c2C1)c1ccccc1 (centres undefined) | > 100 | > 100 | > 100 | > 100
O=C(OCCc1ccc(O)c(O)c1)c1cc(O)c(O)c(O)c1 | 10.7 | 0.6 | 10.5 | 6.3
O=C(OC1COc2cc(O)cc(O)c2C1)c1ccc(O)c(O)c1 (centres undefined) | 37.2 | > 100 | > 100 | > 100
O=C(OCCc1ccccc1)c1cc(O)c(O)c(O)c1 | 72.9 | 6.9 |  | 
O=C(OC1COc2ccccc2C1)c1cc(O)c(O)c(O)c1 (centres undefined) | > 100 | 6.1 | 2.6 | > 100
